# Assay results reported in patent US20100267637A1, “TREATMENT OF MELANOMA WITH ALPHA THYMOSIN PEPTIDES IN COMBINATION WITH A KINASE INHIBITOR” (SciClone Pharmaceuticals, Inc., priority 2007, published 2010).
# Where no end group is shown, it is not given here.
# Test system: murine B16 melanoma cells
# Assay: Anti-tumor effect: tumor size / tumor volume in mice bearing subcutaneous B16 melanoma
# Format: in vivo, C57BL/6 mice
# Design: key to Tumor measurement L (length) / Tumor measurement W (width): The sign “—” indicates that tumor does not reach a measurable size
# Settings: for Tumor Volume (cm^3) (Mean ± SD): group mean; for PI (TV), percent inhibition of tumor volume: vs vehicle; for Tumor volumes on Day 15: Length × Width × Width/2
# Procedure: The toxic effects of the dosing regimens were also monitored. […] Meanwhile 9H10 was given in two groups via i.p. on Day 3, 6 and 9. […] Tumor volume and body weight were measured every three days, and tumor weights were measured on Day 16 at the end of the study.
# As per aseptic tissue culture procedures, one vial of B16 melanoma cells was removed from the liquid nitrogen stock, and placed into a 37° C. water bath. Gentle swirling was conducted until the content of the vial was thawed. Using tissue culture/sterile procedures, the cells were immediately centrifuged with a TD5A-WS centrifuge at 1000 rpm, 20-25° C., 5 min. After centrifugation, the cells were suspended in 0.1 to 0.5 mL normal saline (NS) and subcutaneously injected into 10 mice (0.1 mL/mouse, about 1×10^6 cells). After 7-10 days, when the tumor diameter was approximately 1 cm, the animals were euthanized with CO2 overdose and the tumors excised. The procedure was repeated with 20 mice to generate a sufficient number of B16 melanoma cells with adequate transplantability.
# On the day of tumor implantation, approximately 1×10^6 cells in 0.1 mL were subcutaneously injected on the right axillary area of each mouse. The day of tumor implantation was defined as Day 0.
# On Day 3, the animals were randomly assigned into nine different weight-matched and tumor-size-matched groups. Dosing was started on Day 3 using the regimen according to Table 2.
# From Day 1 to Day 15, mortality and moribundity were checked twice daily, the body weights were recorded once every 3 days, and tumors were measured using a caliper once every 3 days. At the end of the study (Day 16), the animals were euthanized by CO2 asphyxiation, and the tumors were excised and weighed.
# Based on the tumor size, the tumor volume (TV) was calculated with the formula: [TV=(Length×Width×Width)/2]. And the percent inhibition (PI) of TV (PITV) was calculated according to the equation below:
# PITV(%)=(TV vehicle−TVdrug treated)/TV vehicle×100
# Inter-group comparison was performed in terms of tumor volume, tumor weight and body weight, using a student's t test. P values of less than 0.05 were considered to be statistically significant.
substance,measurement,setting,value
"Thymosin Alpha-1 (Ac-SDAAVDTSSEITTKDLKEKKEVVEEAEN; ends and bridges not checked; UniProt P06454 2-29, looked up) [TA-1, 28 amino acid peptide, immunomodulator; test article (SciClone), 6 mg/kg s.c. daily]",Tumor measurement L (length),"Day 3, animal F1",—
same,Tumor measurement W (width),"Day 3, animal F1",—
same,Tumor volume,"Day 3, animal F1",0.0000 cm^3
same,Tumor measurement L (length),"Day 3, animal F2",—
same,Tumor measurement W (width),"Day 3, animal F2",—
same,Tumor volume,"Day 3, animal F2",0.0000 cm^3
same,Tumor measurement L (length),"Day 3, animal F3",—
same,Tumor measurement W (width),"Day 3, animal F3",—
same,Tumor volume,"Day 3, animal F3",0.0000 cm^3
same,Tumor measurement L (length),"Day 3, animal F4",0.10 cm
same,Tumor measurement W (width),"Day 3, animal F4",0.10 cm
same,Tumor volume,"Day 3, animal F4",0.0005 cm^3
same,Tumor measurement L (length),"Day 3, animal F5",—
same,Tumor measurement W (width),"Day 3, animal F5",—
same,Tumor volume,"Day 3, animal F5",0.0000 cm^3
same,Tumor measurement L (length),"Day 3, animal M1",—
same,Tumor measurement W (width),"Day 3, animal M1",—
same,Tumor volume,"Day 3, animal M1",0.0000 cm^3
same,Tumor measurement L (length),"Day 3, animal M2",—
same,Tumor measurement W (width),"Day 3, animal M2",—
same,Tumor volume,"Day 3, animal M2",0.0000 cm^3
same,Tumor measurement L (length),"Day 3, animal M3",—
same,Tumor measurement W (width),"Day 3, animal M3",—
same,Tumor volume,"Day 3, animal M3",0.0000 cm^3
same,Tumor measurement L (length),"Day 3, animal M4",—
same,Tumor measurement W (width),"Day 3, animal M4",—
same,Tumor volume,"Day 3, animal M4",0.0000 cm^3
same,Tumor measurement L (length),"Day 3, animal M5",—
same,Tumor measurement W (width),"Day 3, animal M5",—
same,Tumor volume,"Day 3, animal M5",0.0000 cm^3
same,Tumor Volume (cm^3) (Mean ± SD),Day 3,0.000 ± 0.0002 cm^3
same,"PI (TV), percent inhibition of tumor volume",Day 3,50.00%
same,Tumor measurement L (length),"Day 6, animal F1",—
same,Tumor measurement W (width),"Day 6, animal F1",—
same,Tumor volume,"Day 6, animal F1",0.0000 cm^3
same,Tumor measurement L (length),"Day 6, animal F2",—
same,Tumor measurement W (width),"Day 6, animal F2",—
same,Tumor volume,"Day 6, animal F2",0.0000 cm^3
same,Tumor measurement L (length),"Day 6, animal F3",—
same,Tumor measurement W (width),"Day 6, animal F3",—
same,Tumor volume,"Day 6, animal F3",0.0000 cm^3
same,Tumor measurement L (length),"Day 6, animal F4",—
same,Tumor measurement W (width),"Day 6, animal F4",—
same,Tumor volume,"Day 6, animal F4",0.0000 cm^3
same,Tumor measurement L (length),"Day 6, animal F5",—
same,Tumor measurement W (width),"Day 6, animal F5",—
same,Tumor volume,"Day 6, animal F5",0.0000 cm^3
same,Tumor measurement L (length),"Day 6, animal M1",—
same,Tumor measurement W (width),"Day 6, animal M1",—
same,Tumor volume,"Day 6, animal M1",0.0000 cm^3
same,Tumor measurement L (length),"Day 6, animal M2",—
same,Tumor measurement W (width),"Day 6, animal M2",—
same,Tumor volume,"Day 6, animal M2",0.0000 cm^3
same,Tumor measurement L (length),"Day 6, animal M3",—
same,Tumor measurement W (width),"Day 6, animal M3",—
same,Tumor volume,"Day 6, animal M3",0.0000 cm^3
same,Tumor measurement L (length),"Day 6, animal M4",—
same,Tumor measurement W (width),"Day 6, animal M4",—
same,Tumor volume,"Day 6, animal M4",0.0000 cm^3
same,Tumor measurement L (length),"Day 6, animal M5",—
same,Tumor measurement W (width),"Day 6, animal M5",—
same,Tumor volume,"Day 6, animal M5",0.0000 cm^3
same,Tumor Volume (cm^3) (Mean ± SD),Day 6,0.000 ± 0.0000 cm^3
same,"PI (TV), percent inhibition of tumor volume",Day 6,100.00%
same,Tumor measurement L (length),"Day 9, animal F1",0.10 cm
same,Tumor measurement W (width),"Day 9, animal F1",0.10 cm
same,Tumor volume,"Day 9, animal F1",0.0005 cm^3
same,Tumor measurement L (length),"Day 9, animal F2",0.10 cm
same,Tumor measurement W (width),"Day 9, animal F2",0.10 cm
same,Tumor volume,"Day 9, animal F2",0.0005 cm^3
same,Tumor measurement L (length),"Day 9, animal F3",0.10 cm
same,Tumor measurement W (width),"Day 9, animal F3",0.10 cm
same,Tumor volume,"Day 9, animal F3",0.0005 cm^3
same,Tumor measurement L (length),"Day 9, animal F4",0.20 cm
same,Tumor measurement W (width),"Day 9, animal F4",0.20 cm
same,Tumor volume,"Day 9, animal F4",0.0040 cm^3
same,Tumor volume,"Day 9, animal F5",0.0000 cm^3
same,Tumor measurement L (length),"Day 9, animal M1",0.10 cm
same,Tumor measurement W (width),"Day 9, animal M1",0.10 cm
same,Tumor volume,"Day 9, animal M1",0.0005 cm^3
same,Tumor measurement L (length),"Day 9, animal M2",0.20 cm
same,Tumor measurement W (width),"Day 9, animal M2",0.20 cm
same,Tumor volume,"Day 9, animal M2",0.0040 cm^3
same,Tumor measurement L (length),"Day 9, animal M3",0.50 cm
same,Tumor measurement W (width),"Day 9, animal M3",0.50 cm
same,Tumor volume,"Day 9, animal M3",0.0625 cm^3
same,Tumor measurement L (length),"Day 9, animal M4",0.20 cm
same,Tumor measurement W (width),"Day 9, animal M4",0.20 cm
same,Tumor volume,"Day 9, animal M4",0.0040 cm^3
same,Tumor measurement L (length),"Day 9, animal M5",0.30 cm
same,Tumor measurement W (width),"Day 9, animal M5",0.30 cm
same,Tumor volume,"Day 9, animal M5",0.0135 cm^3
same,Tumor Volume (cm^3) (Mean ± SD),Day 9,0.009 ± 0.0192 cm^3
same,"PI (TV), percent inhibition of tumor volume",Day 9,56.73%
same,Tumor volume,"Day 12, animal F1",0.0625 cm^3
same,"Tumor measurements on Day 12, L","Day 12, animal F1",0.50 cm
same,"Tumor measurements on Day 12, W","Day 12, animal F1",0.50 cm
same,Tumor volume,"Day 12, animal F2",0.0625 cm^3
same,"Tumor measurements on Day 12, L","Day 12, animal F2",0.50 cm
same,"Tumor measurements on Day 12, W","Day 12, animal F2",0.50 cm
same,Tumor volume,"Day 12, animal F3",0.0625 cm^3
same,"Tumor measurements on Day 12, L","Day 12, animal F3",0.50 cm
same,"Tumor measurements on Day 12, W","Day 12, animal F3",0.50 cm
same,Tumor volume,"Day 12, animal F4",0.1715 cm^3
same,"Tumor measurements on Day 12, L","Day 12, animal F4",0.70 cm
same,"Tumor measurements on Day 12, W","Day 12, animal F4",0.70 cm
same,Tumor volume,"Day 12, animal F5",0.0005 cm^3
same,"Tumor measurements on Day 12, L","Day 12, animal F5",0.10 cm
same,"Tumor measurements on Day 12, W","Day 12, animal F5",0.10 cm
same,Tumor volume,"Day 12, animal M1",0.0625 cm^3
same,"Tumor measurements on Day 12, L","Day 12, animal M1",0.50 cm
same,"Tumor measurements on Day 12, W","Day 12, animal M1",0.50 cm
same,Tumor volume,"Day 12, animal M2",0.1715 cm^3
same,"Tumor measurements on Day 12, L","Day 12, animal M2",0.70 cm
same,"Tumor measurements on Day 12, W","Day 12, animal M2",0.70 cm
same,Tumor volume,"Day 12, animal M3",0.3645 cm^3
same,"Tumor measurements on Day 12, L","Day 12, animal M3",0.90 cm
same,"Tumor measurements on Day 12, W","Day 12, animal M3",0.90 cm
same,Tumor volume,"Day 12, animal M4",0.0625 cm^3
same,"Tumor measurements on Day 12, L","Day 12, animal M4",0.50 cm
same,"Tumor measurements on Day 12, W","Day 12, animal M4",0.50 cm
same,Tumor volume,"Day 12, animal M5",0.3645 cm^3
same,"Tumor measurements on Day 12, L","Day 12, animal M5",0.90 cm
same,"Tumor measurements on Day 12, W","Day 12, animal M5",0.90 cm
same,Tumor Volume (cm^3) (Mean ± SD),Day 12,0.139 ± 0.1301 cm^3
same,"PI (TV), percent inhibition of tumor volume",Day 12,59.58%
same,"Tumor measurements on Day 15, L","Day 15, animal F1",0.70 cm
same,Tumor volumes on Day 15,"Day 15, animal F1",0.1715 cm^3
same,"Tumor measurements on Day 15, W","Day 15, animal F1",0.70 cm
same,"Tumor measurements on Day 15, L","Day 15, animal F2",0.70 cm
same,Tumor volumes on Day 15,"Day 15, animal F2",0.1260 cm^3
same,"Tumor measurements on Day 15, W","Day 15, animal F2",0.60 cm
same,"Tumor measurements on Day 15, L","Day 15, animal F3",0.60 cm
same,Tumor volumes on Day 15,"Day 15, animal F3",0.1080 cm^3
same,"Tumor measurements on Day 15, W","Day 15, animal F3",0.60 cm
same,"Tumor measurements on Day 15, L","Day 15, animal F4",1.00 cm
same,Tumor volumes on Day 15,"Day 15, animal F4",0.2450 cm^3
same,"Tumor measurements on Day 15, W","Day 15, animal F4",0.70 cm
same,"Tumor measurements on Day 15, L","Day 15, animal F5",0.30 cm
same,Tumor volumes on Day 15,"Day 15, animal F5",0.0135 cm^3
same,"Tumor measurements on Day 15, W","Day 15, animal F5",0.30 cm
same,"Tumor measurements on Day 15, L","Day 15, animal M1",0.70 cm
same,Tumor volumes on Day 15,"Day 15, animal M1",0.1715 cm^3
same,"Tumor measurements on Day 15, W","Day 15, animal M1",0.70 cm
same,"Tumor measurements on Day 15, L","Day 15, animal M2",1.00 cm
same,Tumor volumes on Day 15,"Day 15, animal M2",0.5000 cm^3
same,"Tumor measurements on Day 15, W","Day 15, animal M2",1.00 cm
same,"Tumor measurements on Day 15, L","Day 15, animal M3",1.00 cm
same,Tumor volumes on Day 15,"Day 15, animal M3",0.5000 cm^3
same,"Tumor measurements on Day 15, W","Day 15, animal M3",1.00 cm
same,"Tumor measurements on Day 15, L","Day 15, animal M4",1.00 cm
same,Tumor volumes on Day 15,"Day 15, animal M4",0.4050 cm^3
same,"Tumor measurements on Day 15, W","Day 15, animal M4",0.90 cm
same,"Tumor measurements on Day 15, L","Day 15, animal M5",1.00 cm
same,Tumor volumes on Day 15,"Day 15, animal M5",0.5000 cm^3
same,"Tumor measurements on Day 15, W","Day 15, animal M5",1.00 cm
same,Tumor Volume (cm^3) (Mean ± SD),Day 15,0.274 ± 0.1855 cm^3
same,"PI (TV), percent inhibition of tumor volume",Day 15,62.57%
same,effect on tumor growth in words,daily dosing Days 3-15,effective against the tumor growth
same,reduction of mean tumor volume in comparison to vehicle control,"throughout the course of the study, 6 mg/kg s.c. daily",50-60%
